According to article PMC12090193, “Flavonoid carbamate hybrids: design, synthesis, and evaluation as multi-target enzyme inhibitors for Alzheimer's disease” (RSC Advances, 2025):
Like-named read-outs stand apart in the source and are kept apart here.

Assays:
MAGL = biological target: T1, MAGL (Homo sapiens, UniProt Q99685); test: biochemical
T1 construct: purchased Finetest (China)
T1 sequence (Q99685 1-303): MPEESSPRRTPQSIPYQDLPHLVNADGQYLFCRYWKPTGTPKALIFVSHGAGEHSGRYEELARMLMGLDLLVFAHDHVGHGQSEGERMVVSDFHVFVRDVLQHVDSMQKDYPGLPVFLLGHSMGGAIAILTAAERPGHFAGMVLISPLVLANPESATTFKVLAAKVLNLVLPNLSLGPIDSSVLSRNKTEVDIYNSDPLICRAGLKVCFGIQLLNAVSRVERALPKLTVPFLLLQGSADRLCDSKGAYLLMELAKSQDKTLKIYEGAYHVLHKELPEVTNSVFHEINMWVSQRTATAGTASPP
Protocol: The MAGL inhibitory activity of the synthesized compounds was assessed using a spectrophotometric assay, employing 4-NPA as a surrogate substrate. The experimental procedure was adapted from a previously published protocol with minor modifications.[37]
The assay was conducted at room temperature using an ELISA reader (EMR-500) with a 96-well plate, with a total reaction volume of 200 μL per well. The reaction system comprised 10 mM tris–HCl buffer (pH 7.2), 1 mM EDTA, and 0.1 mg mL^−1 bovine serum albumin. […] The negative control was prepared by replacing the inhibitor with 10 μL of DMSO. The enzymatic reaction was initiated by adding 40 μL of MAGL enzyme solution (11 ng per well), while the blank control used buffer instead of the enzyme. The reaction mixtures were incubated for 30 minutes, and absorbance was measured at 405 nm. Each sample was tested in triplicate, and IC50 values were determined from the obtained data using GraphPad Prism 8.4.3.

AChE = biological target: T2, AChE (Homo sapiens, UniProt P22303); test: AChE inhibition assay (Ellman's method); type: biochemical
T2 construct: purchased Sigma-Aldrich (Germany)
Protocol: The AChE inhibitory activity of the synthesized compounds was determined using Ellman's method, with slight modifications to optimize experimental conditions.[35] The assay was performed following the procedures described in our previous study.[36]

[1] = 4-NPA 100 μM, 30 min, absorbance 405 nm, triplicate, read-out: IC50 ± SD MAGL
[2] = Ellman's method, read-out: IC50 ± SD AChE

T2 sequence (P22303 32-614): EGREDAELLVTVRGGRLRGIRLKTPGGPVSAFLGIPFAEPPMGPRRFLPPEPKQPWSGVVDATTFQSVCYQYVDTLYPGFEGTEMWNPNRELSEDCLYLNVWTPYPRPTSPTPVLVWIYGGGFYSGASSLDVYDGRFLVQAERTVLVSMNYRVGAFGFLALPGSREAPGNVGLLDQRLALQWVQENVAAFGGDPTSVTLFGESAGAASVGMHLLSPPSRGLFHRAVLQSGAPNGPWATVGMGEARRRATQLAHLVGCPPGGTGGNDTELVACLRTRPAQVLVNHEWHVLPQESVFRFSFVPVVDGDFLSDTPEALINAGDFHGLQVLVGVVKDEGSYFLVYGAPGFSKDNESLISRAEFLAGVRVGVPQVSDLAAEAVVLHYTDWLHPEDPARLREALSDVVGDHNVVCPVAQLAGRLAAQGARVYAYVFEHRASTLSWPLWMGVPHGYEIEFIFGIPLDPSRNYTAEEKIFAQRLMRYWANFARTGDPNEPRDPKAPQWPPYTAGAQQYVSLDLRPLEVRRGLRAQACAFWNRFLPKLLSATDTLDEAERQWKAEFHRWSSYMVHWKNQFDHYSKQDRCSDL

Row | Structure (SMILES) | IC50 (MAGL) [µM] | IC50 (AChE) [µM] | IC50 (MAGL; [1]) [µM] | IC50 (AChE; [2]) [µM]
1 | CN(C)C(=O)Oc1cc(O)c2c(=O)cc(-c3ccccc3)oc2c1 [Compound C1, 5-Hydroxy-4-oxo-2-phenyl-4H-chromen-7-yl dimethylcarbamate] | 72.2 ± 5.34 | 188 ± 16.2 | – | –
2 | CCN(CC)C(=O)Oc1ccc(-c2oc3cc(OC(=O)N(CC)CC)cc(O)c3c(=O)c2OC(=O)N(CC)CC)cc1 [Compound K3, 2-(4-((Diethylcarbamoyl)oxy)phenyl)-5-hydroxy-4-oxo-4H-chromene-3,7-diyl bis(diethylcarbamate)] | – | – | 61.6 ± 3.01 | 146 ± 10.4
3 | CCN(CC)C(=O)Oc1cc(O)c2c(=O)cc(-c3ccccc3)oc2c1 [Compound C3, 5-Hydroxy-4-oxo-2-phenyl-4H-chromen-7-yl diethylcarbamate] | – | – | 22.9 ± 1.3 | 61.8 ± 1.42
4 | CCN(C)C(=O)Oc1cc(OC(=O)N(C)CC)c2c(=O)cc(-c3ccccc3)oc2c1 [Compound C6, 4-Oxo-2-phenyl-4H-chromene-5,7-diyl bis(ethyl(methyl)carbamate)] | > 200 | > 200 | – | –
5 | CCN(CC)C(=O)Oc1cc(OC(=O)N(CC)CC)c2c(=O)cc(-c3ccccc3)oc2c1 [Compound C4, 4-Oxo-2-phenyl-4H-chromene-5,7-diyl bis(diethylcarbamate)] | – | – | > 200 | > 200
6 | CN(C)C(=O)Oc1ccc(-c2oc3cc(OC(=O)N(C)C)cc(OC(=O)N(C)C)c3c(=O)c2OC(=O)N(C)C)cc1 [Compound K2, 2-(4-((Dimethylcarbamoyl)oxy)phenyl)-4-oxo-4H-chromene-3,5,7-triyl tris(dimethylcarbamate)] | > 200 | > 200 | – | –
7 | CCN(CC)C(=O)Oc1ccc(-c2oc3cc(OC(=O)N(CC)CC)cc(OC(=O)N(CC)CC)c3c(=O)c2OC(=O)N(CC)CC)cc1 [Compound K4, 2-(4-((Diethylcarbamoyl)oxy)phenyl)-4-oxo-4H-chromene-3,5,7-triyl tris(diethylcarbamate)] | – | – | > 200 | > 200
8 | CN(C)C(=O)Oc1cc(OC(=O)N(C)C)c2c(=O)cc(-c3ccccc3)oc2c1 [Compound C2, 4-Oxo-2-phenyl-4H-chromene-5,7-diyl bis(dimethylcarbamate)] | 96.4 ± 1.54 | > 200 | – | –
9 | O=c1cc(-c2ccccc2)oc2cc(O)cc(O)c12 [Chrysin, reference compound] | – | – | 169 ± 11.4 | 157 ± 11.7
10 | CCN(C)C(=O)Oc1ccc(-c2oc3cc(OC(=O)N(C)CC)cc(O)c3c(=O)c2OC(=O)N(C)CC)cc1 [Compound K5, 2-(4-((Ethyl(methyl)carbamoyl)oxy)phenyl)-5-hydroxy-4-oxo-4H-chromene-3,7-diyl bis(ethyl(methyl)carbamate)] | 60.1 ± 4.74 | > 200 | – | –
11 | CCN(C)C(=O)Oc1cc(O)c2c(=O)cc(-c3ccccc3)oc2c1 [Compound C5, 5-Hydroxy-4-oxo-2-phenyl-4H-chromen-7-yl ethyl(methyl)carbamate] | 46.6 ± 2.23 | 89.4 ± 5.66 | – | –
12 | CN(C)C(=O)Oc1ccc(-c2oc3cc(OC(=O)N(C)C)cc(O)c3c(=O)c2OC(=O)N(C)C)cc1 [Compound K1, 2-(4-((Dimethylcarbamoyl)oxy)phenyl)-5-hydroxy-4-oxo-4H-chromene-3,7-diyl bis(dimethylcarbamate)] | 126 ± 8.28 | 100 ± 7.85 | – | –
13 | CCN(C)C(=O)Oc1ccc(-c2oc3cc(OC(=O)N(C)CC)cc(OC(=O)N(C)CC)c3c(=O)c2OC(=O)N(C)CC)cc1 [Compound K6, 2-(4-((Ethyl(methyl)carbamoyl)oxy)phenyl)-4-oxo-4H-chromene-3,5,7-triyl tris(ethyl(methyl)carbamate)] | 178 ± 9.12 | > 200 | – | –
14 | O=c1c(O)c(-c2ccc(O)cc2)oc2cc(O)cc(O)c12 [Kaempferol, reference compound] | – | 226 ± 17.9 | 189 ± 7.89 | –
